Measured values reported in PMC7444556, “MrpH, a new class of metal-binding adhesin, requires zinc to mediate biofilm formation” (PLoS Pathogens, 2020).
Where a name gives a salt, the structure may show the parent alone. Read-outs that look alike come from different tables or passages of the source.

Tests used:
Assay type in all cases: binding
MrpH159 (MrpHntd) [1] = target: T1, MrpH159 (MrpHntd) (Proteus mirabilis, UniProt B4EUK6); conditions: 10 mM ligand, 10 uM protein, 24 mM NaCl, 6 mM HEPES pH 7.5, reference storage buffer 65.2±0.30 °C
T1 construct: gene mrpH; pEXP5-CT/TOPO (His-tag, Ni-NTA, no cleavage told); expressed in E. coli BL21-AI
T1 sequence (B4EUK6 entry or part of it): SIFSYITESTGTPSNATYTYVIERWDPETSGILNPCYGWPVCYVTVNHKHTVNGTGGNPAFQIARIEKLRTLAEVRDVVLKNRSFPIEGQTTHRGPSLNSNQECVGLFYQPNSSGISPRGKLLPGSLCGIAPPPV
Excerpt: thermal shift assay (SYPRO Orange) on MrpH159 (MrpHntd)

MrpH153 (MrpHntd) = target: T2, MrpH153 (MrpHntd) (Proteus mirabilis, UniProt B4EUK6); test: thermal shift assay; conditions: 10 mM ammonium tartrate pH 7.0, 100 mM NaCl; reference 66.7 ± 0.6 °C in 10 mM HEPES pH 7.5
T2 construct: gene mrpH; C-terminal His-tag kept; expressed in E. coli
T2 sequence (B4EUK6 entry or part of it): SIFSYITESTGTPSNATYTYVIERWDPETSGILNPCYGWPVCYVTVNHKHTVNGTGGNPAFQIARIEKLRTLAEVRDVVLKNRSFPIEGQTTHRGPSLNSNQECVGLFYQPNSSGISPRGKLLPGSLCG

MrpH159 (MrpHntd) [2] = target: T1, MrpH159 (MrpHntd); test: X-ray crystal structure, […] Å; conditions: side chain carboxyl ligates Zn2+; ligand not added, picked up during expression, assigned from electron density

Structure (SMILES) | <Tm> (°C)^a (MrpH159 (MrpHntd) [1]; citrate pH not stated) | Tm (MrpH153 (MrpHntd)) | <Tm> (°C)^a (MrpH159 (MrpHntd) [1]) | X-ray crystal structure, 1.75 Å (MrpH159 (MrpHntd) [2])
O=C(O)CC(O)(CC(=O)O)C(=O)O [Sodium citrate] | 73.3±0.64 °C |  |  | 
O=C(O)C(O)C(O)C(=O)O (stereo not shown) [tartrate] |  | 78.5 ± 0.1 °C | 80.1±0.70 °C | 
CC(=O)O [Sodium acetate] |  |  | 76.3±0.56 °C | 
O=CO [Sodium formate] |  |  | 68.4±0.75 °C | 
N[C@@H](CCC(=O)O)C(=O)O [glutamic acid] |  |  | 73.1±0.21 °C | we have assigned glutamic acid as the bound ligand in the MrpH159 structure
